Reference: publication PMC13249469, “High-throughput ligand diversification to discover chemical inducers of proximity” (Nature Chemical Biology, 2026)

Target: T1, CRBN (Cereblon) (Homo sapiens, UniProt Q96SW2)
T1 construct: CRBN–DDB1; with DDB1
Experiment: competitive FP displacement of BODIPY-labelled IMiD probe, without ENL YEATS
Type: binding

IC50: 155 nM
Structure (SMILES): O=C(COc1cccc2c1C(=O)N(C1CCC(=O)NC1=O)C2=O)NCCOCCOCCNS(=O)(=O)Nc1cccc(-c2cn3cc(C(=O)NC4CCC4)ccc3n2)c1 (stereo not shown) [SR-1114]
